Test results as given in US20240109868A1, “EP300/CBP MODULATOR, PREPARATION METHOD THEREFOR AND USE THEREOF” (Miracure Biotechnology Limited, priority 2022, published 2024).

Legend:
[1] = test system: 22Rv1 Cell; experiment: 22RV1 cell growth inhibition, CellTiter-Glo, 72 h; format: cell-based; conditions: 22RV1 cells, 72 h culture
Summary of the method: (§1)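 Cells seeded at 5×10^3/well overnight in RPMI-1640/10% FBS, then exposed to compound (0.5% DMSO final) for 72 h at 37 °C.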

[2] = test system: vCap Cell; experiment: vCap cell growth inhibition, CellTiter-Glo, 72 h; format: cell-based; conditions: vCap cells, 72 h culture
Summary of the method: as §1

[3] = molecular target: T1, CBP bromodomain (Homo sapiens, UniProt Q92793); experiment: CBP AlphaLISA assay kit (CBP bromodomain binding to acetylated histone substrate); conditions: read-out: CBP ALPHA IC50
T1 construct: purchased
T1 sequence (Q92793 1085-1192 limits assumed): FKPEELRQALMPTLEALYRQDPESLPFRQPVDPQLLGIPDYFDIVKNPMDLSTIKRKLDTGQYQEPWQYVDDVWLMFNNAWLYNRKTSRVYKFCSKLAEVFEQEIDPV
Description: The biochemical activity of the CBP inhibitors was determined using the CBP AlphaLISA® assay kit. The assay is based on the binding of the CBP bromodomain to the acetylated histone substrate. The compounds were incubated with CBP and the biotinylated substrate for 30 min. Then acceptor beads were added, followed by 15 min of incubation, and donor beads were added, followed by 15 min of incubation. Then the alpha counts were read, the data were analyzed using Prism 7.0, and the IC50 values were calculated. The values are shown as mean f SEM (N=2).

| Structure (SMILES) | IC50 ([1]; Homo sapiens, 22Rv1, 72 h) [µM] | IC50 ([2]; Homo sapiens, VCaP, 72 h) [µM] | IC50 [3] [µM] | IC50 [1] [µM] | IC50 [2] [µM] |
| --- | --- | --- | --- | --- | --- |
| COC1CCC(c2cc3c(c(N4CCCc5cc(-c6cnn(C)c6)c(C(F)F)cc54)c2)CN(C(C)=O)C3)CC1 (stereo not drawn) [Compound M001065] | < 1 | < 1 | < 0.01 | – | – |
| CNC(=O)N1CCc2cc(C3CCN(C(=O)c4ccccc4)CC3)cc(N3CCCc4cc(-c5cnn(C)c5)c(C(F)F)cc43)c2C1 [Compound M001076] | > 1 | < 1 | < 0.01 | – | – |
| CC(=O)N1Cc2cc(C3CCNC(=O)C3)cc(N3CCCc4cc(-c5cnn(C)c5)c(C(F)F)cc43)c2C1 (stereo not drawn) [Compound M001126] | < 1 | < 1 | > 0.01 | – | – |
| CC(=O)N1Cc2cc(C3CCC(=O)N(C)C3)cc(N3CCCc4cc(-c5cnn(C)c5)c(C(F)F)cc43)c2C1 (stereo not drawn) [Compound M001173] | < 1 | < 1 | < 0.01 | – | – |
| CC(=O)N1Cc2cc(C3CCC(=O)NC3)cc(N3CCCc4cc(-c5cnn(C)c5)c(C(F)F)cc43)c2C1 (stereo not drawn) [Compound M001174] | > 1 | < 1 | < 0.01 | – | – |
| CC(=O)N1Cc2cc(C3CCN(CC(C)O)C(=O)C3)cc(N3CCCc4cc(-c5cnn(C)c5)c(C(F)F)cc43)c2C1 (stereo not drawn) [Compound M001190] | < 1 | < 1 | < 0.01 | – | – |
| COCCN1CCC(c2cc3c(c(N4CCCc5cc(-c6cnn(C)c6)c(C(F)F)cc54)c2)CN(C(C)=O)C3)CC1=O (stereo not drawn) [Compound M001191] | < 1 | < 1 | < 0.01 | – | – |
| CCN1CCC(c2cc3c(c(N4CCCc5cc(-c6cnn(C)c6)c(C(F)F)cc54)c2)CN(C(=O)OC)CCC3)CC1=O (stereo not drawn) [Compound M001260, methyl 9-(7-(difluoromethyl)-6-(1-methyl-1H-pyrazol-4-yl)-3,4-dihydroquinolin-1(2H)-yl)-7-(1-ethyl-2-oxopiperidin-4-yl)-1,3,4,5-tetrahydro-2H-benzo[c]azepine-2-carboxylate] | > 1 | > 1 | – | – | – |
| CCN1CCC(c2cc3c(c(N4CCCc5cc(-c6cnn(C)c6)c(C(F)F)cc54)c2)CN(C(N)=O)CCC3)CC1=O (stereo not drawn) [Compound M001261] | > 1 | > 1 | – | – | – |
| CCN1CCC(c2cc3c(c(N4CCCc5cc(-c6cnn(C)c6)c(C(F)F)cc54)c2)CN(C(=O)NC)CCC3)CC1=O (stereo not drawn) [Compound M001263] | > 1 | > 1 | – | – | – |
| CCN1CCC(c2cc3c(c(N4CCCc5cc(-c6cnn(C)c6)c(C(F)F)cc54)c2)CN(C(C)=O)CCC3)CC1=O (stereo not drawn) [Compound M001264] | > 1 | > 1 | – | – | – |
| CNC(=O)N1CCc2cc(C3CCN(OC)CC3)cc(N3CCCc4cc(-c5cnn(C)c5)c(C(F)F)cc43)c2C1 [Compound M001268] | > 1 | < 1 | – | – | – |
| CON1CCC(c2cc3c(c(N4CCCc5cc(-c6cnn(C)c6)c(C(F)F)cc54)c2)CN(C(C)=O)C3)CC1 [Compound M001269] | > 1 | > 1 | – | – | – |
| COC(=O)N1CCc2cc(C3CCC(=O)N(CC(C)(C)O)C3)cc(N3CCCc4cc(-c5cnn(C)c5)c(C(F)F)cc43)c2C1 (stereo not drawn) [Compound M001272] | > 1 | > 1 | – | – | – |
| CON1CCC(c2cc3c(c(N4CCCc5cc(-c6cnn(C)c6)c(C(F)F)cc54)c2)CN(C(=O)OC(C)(C)C)CC3)CC1 [Compound M001274, tert-butyl 8-[7-(difluoromethyl)-6-(1-methylpyrazol-4-yl)-3,4-dihydro-2H-quinolin-1-yl]-6-(1-methoxypiperidin-4-yl)-3,4-dihydro-1H-isoquinoline-2-carboxylate] | > 1 | > 1 | – | – | – |
| CON1CCC(c2cc3c(c(N4CCCc5cc(-c6cnn(C)c6)c(C(F)F)cc54)c2)CN(C(=O)OC(C)(C)C)C3)CC1 [Compound M001275] | > 1 | > 1 | – | – | – |
| CNC(=O)N1CCc2cc(C3CCN(CC(C)(C)O)C(=O)C3)cc(N3CCCc4cc(-c5cnn(C)c5)c(C(F)F)cc43)c2C1 (stereo not drawn) [Compound M001280] | < 1 | > 1 | – | – | – |
| CC(=O)N1Cc2cc(C3CCN(C4CCC(=O)NC4=O)C(=O)C3)cc(N3CCCc4cc(-c5cnn(C)c5)c(C(F)F)cc43)c2C1 (stereo not drawn) [Compound M001288] | > 1 | > 1 | – | – | – |
| CC(=O)N1Cc2cc(C3CCN(S(C)(=O)=O)CC3)cc(N3CCCc4cc(-c5cnn(C)c5)c(C(F)F)cc43)c2C1 [Compound M001296] | < 1 | < 1 | – | – | – |

| Structure (SMILES) | IC50 ([1]; Homo sapiens, 22Rv1, 72 h) [µM] | IC50 ([2]; Homo sapiens, VCaP, 72 h) [µM] | IC50 [3] [µM] | IC50 [1] [µM] | IC50 [2] [µM] |
| --- | --- | --- | --- | --- | --- |
| CC(=O)N1Cc2cc(C3CCC(S(C)(=N)=O)CC3)cc(N3CCCc4cc(-c5cnn(C)c5)c(C(F)F)cc43)c2C1 (stereo not drawn) [Compound M001297, (4-(2-acetyl-7-(7-(difluoromethyl)-6-(1-methyl-1H-pyrazol-4-yl)-3,4-dihydroquinolin-1(2H)-yl)isoindol-5-yl)cyclohexyl)(imino)(methyl)-16-sulfanone] | < 1 | < 1 | – | – | – |
| CC(=O)N1Cc2cc(C3CCN(S(=O)(=O)C4CC4)CC3)cc(N3CCCc4cc(-c5cnn(C)c5)c(C(F)F)cc43)c2C1 [Compound M001298] | < 1 | < 1 | – | – | – |
| CC(=O)N1Cc2cc([C@H]3CC[C@@H](S(C)(=O)=O)CC3)cc(N3CCCc4cc(-c5cnn(C)c5)c(C(F)F)cc43)c2C1 [Compound M001299] | < 1 | < 1 | – | – | – |
| CC(=O)N1Cc2cc(C3CCC(N)CC3)cc(N3CCCc4cc(-c5cnn(C)c5)c(C(F)F)cc43)c2C1 (stereo not drawn) [Compound M001301, 1-(6-(4-aminocyclohexyl)-4-(7-(difluoromethyl)-6-(1-methyl-1H-pyrazol-4-yl)-3,4-dihydroquinolin-1(2H)-yl)isoindolin-2-yl)ethan-1-one] | > 1 | > 1 | – | – | – |
| CC(=O)N[C@H]1CC[C@H](c2cc3c(c(N4CCCc5cc(-c6cnn(C)c6)c(C(F)F)cc54)c2)CN(C(C)=O)C3)CC1 [Compound M001304] | < 1 | < 1 | – | – | – |
| CNC(=O)N1CCc2cc(C3CCN(S(=O)(=O)C4CC4)CC3)cc(N3CCCc4cc(-c5cnn(C)c5)c(C(F)F)cc43)c2C1 [Compound M001307] | < 1 | < 1 | – | – | – |
| CNC(=O)N1CCc2cc([C@H]3CC[C@@H](NS(C)(=O)=O)CC3)cc(N3CCCc4cc(-c5cnn(C)c5)c(C(F)F)cc43)c2C1 [Compound M001313] | > 1 | < 1 | – | – | – |
| CSC1CCC(c2cc3c(c(N4CCCc5cc(-c6cnn(C)c6)c(C(F)F)cc54)c2)CN(C(C)=O)C3)CC1 (stereo not drawn) [Compound M001315] | > 1 | < 1 | – | – | – |
| CC(=O)N1Cc2cc(C3CCC(N)CC3)cc(N3CCCc4cc(-c5cnn(C)c5)c(C(F)F)cc43)c2C1 (stereo not drawn) [Compound M001320] | – | – | – | > 1 | > 1 |
| CC(=O)N1Cc2cc([C@H]3CC[C@@H](N)CC3)cc(N3CCCc4cc(-c5cnn(C)c5)c(C(F)F)cc43)c2C1 [Compound M001321] | > 1 | > 1 | – | – | – |
| CS[C@H]1CC[C@@H](c2cc3c(c(N4CCCc5cc(-c6cnn(C)c6)c(C(F)F)cc54)c2)CN(C(C)=O)C3)CC1 [Compound M001322] | > 1 | > 1 | – | – | – |
| CC(=O)N1Cc2cc(C3CCC([S+](C)[O-])CC3)cc(N3CCCc4cc(-c5cnn(C)c5)c(C(F)F)cc43)c2C1 (stereo not drawn) [Compound M001323] | > 1 | < 1 | – | – | – |
| CSC1CCC(c2cc3c(c(N4CCCc5cc(-c6cnn(C)c6)c(C(F)F)cc54)c2)CN(C(C)=O)C3)CC1 (stereo not drawn) [Compound M001324] | – | – | – | > 1 | < 1 |
| CC(=O)N1Cc2cc(C3CCC(S(C)(=N)=O)CC3)cc(N3CCCc4cc(-c5cnn(C)c5)c(C(F)F)cc43)c2C1 (stereo not drawn) [Compound M001327] | – | – | – | > 1 | > 1 |
| CC(=O)N1Cc2cc(C3CCC([S@@](C)(=N)=O)CC3)cc(N3CCCc4cc(-c5cnn(C)c5)c(C(F)F)cc43)c2C1 (stereo partly drawn) [Compound M001328] | > 1 | > 1 | – | – | – |
| CC(=O)N1Cc2cc(C3CCC([S@@](C)(=N)=O)CC3)cc(N3CCCc4cc(-c5cnn(C)c5)c(C(F)F)cc43)c2C1 (stereo partly drawn) [Compound M001329] | – | – | – | > 1 | > 1 |
| CON[C@H]1CC[C@@H](c2cc3c(c(N4CCCc5cc(-c6cnn(C)c6)c(C(F)F)cc54)c2)CN(C(C)=O)C3)CC1 [Compound M001340] | > 1 | > 1 | – | – | – |
| CON[C@H]1CC[C@H](c2cc3c(c(N4CCCc5cc(-c6cnn(C)c6)c(C(F)F)cc54)c2)CN(C(C)=O)C3)CC1 [Compound M001341] | > 1 | > 1 | – | – | – |
